Results taken from ChEMBL document CHEMBL3399981, “Novel neurotrophic phenylbutenoids from Indonesian ginger Bangle, Zingiber purpureum” (Bioorg Med Chem Lett, 2015).
Active and inactive are the calls of the source. No cut-off for these calls is given here.

Key:
[1] = molecular target: Amyloid-beta precursor protein (Homo sapiens) (UniProt P05067); experiment: Inhibition of beta-sheet formation in amyloid beta-42 (unknown origin) assessed as decrease in ThT fluorescence at 50 uM after 1 hr by spectrophotometric plate reader
Amyloid-beta precursor protein (Homo sapiens), sequence (P05067 whole entry): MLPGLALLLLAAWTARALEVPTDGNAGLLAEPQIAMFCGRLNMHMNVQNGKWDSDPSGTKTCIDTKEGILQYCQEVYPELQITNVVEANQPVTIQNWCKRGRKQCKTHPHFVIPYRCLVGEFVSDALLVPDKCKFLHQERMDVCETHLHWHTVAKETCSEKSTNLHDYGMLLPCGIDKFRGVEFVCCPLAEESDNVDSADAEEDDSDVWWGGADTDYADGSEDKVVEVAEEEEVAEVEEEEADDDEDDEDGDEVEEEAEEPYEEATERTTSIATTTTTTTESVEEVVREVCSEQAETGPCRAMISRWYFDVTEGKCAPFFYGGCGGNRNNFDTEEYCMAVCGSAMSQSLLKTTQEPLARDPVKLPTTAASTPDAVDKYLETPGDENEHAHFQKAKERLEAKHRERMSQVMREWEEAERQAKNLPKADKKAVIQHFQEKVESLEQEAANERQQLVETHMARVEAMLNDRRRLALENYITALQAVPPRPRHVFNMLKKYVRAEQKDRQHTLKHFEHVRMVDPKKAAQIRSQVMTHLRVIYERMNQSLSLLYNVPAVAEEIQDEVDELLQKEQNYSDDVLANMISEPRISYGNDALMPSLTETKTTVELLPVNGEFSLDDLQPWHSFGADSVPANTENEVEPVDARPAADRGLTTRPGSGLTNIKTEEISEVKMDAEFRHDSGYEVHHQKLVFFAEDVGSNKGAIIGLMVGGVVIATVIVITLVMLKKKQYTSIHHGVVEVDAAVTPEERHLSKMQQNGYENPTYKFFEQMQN

[2] = molecular target: Amyloid-beta precursor protein (Homo sapiens) (UniProt P05067); experiment: Inhibition of beta-sheet formation in amyloid beta-42 (unknown origin) assessed as decrease in ThT fluorescence after 1 hr by spectrophotometric plate reader
PC-12 [3] = experiment: Neuritogenic activity in rat PC12 cells assessed as neurite outgrowth at 1 uM after 4 days by phase-contrast microscopy in presence of 2 ng/ml NGF; format: functional, cell-based
[4] = Toxicity in rat PC12 cells at > 10 uM after 4 days by phase-contrast microscopy in presence of 2 ng/ml NGF; format: cell-based; details: pc-12, 96 h
PC-12 [5] = experiment: Neuritogenic activity in rat PC12 cells assessed as neurite outgrowth after 4 days by phase-contrast microscopy in presence of 2 ng/ml NGF; format: functional, cell-based
PC-12 [6] = experiment: Neuritogenic activity in rat PC12 cells assessed as neurite outgrowth at 1 to 30 uM after 4 days by phase-contrast microscopy in presence of 2 ng/ml NGF; format: functional, cell-based
[7] = Toxicity in rat PC12 cells at > 30 uM after 4 days by phase-contrast microscopy in presence of 2 ng/ml NGF; format: cell-based; details: pc-12, 96 h
PC-12 [8] = experiment: Neuritogenic activity in rat PC12 cells assessed as neurite outgrowth at 10 uM after 4 days by phase-contrast microscopy in presence of 2 ng/ml NGF; format: functional, cell-based
PC-12 [9] = experiment: Neuritogenic activity in rat PC12 cells assessed as neurite outgrowth at 30 uM after 4 days by phase-contrast microscopy; format: functional, cell-based

| inhibition [1] [%] | inhibition [2] | Structure (SMILES) | Activity (PC-12 [3]) | Activity [4] | Activity (PC-12 [5]) | Activity (PC-12 [6]) | Activity [7] | Activity (PC-12 [8]) | Activity (PC-12 [9]) |
| --- | --- | --- | --- | --- | --- | --- | --- | --- | --- |
| 18.9 | Dose-dependent effect | COc1cc(/C=C/C(=O)C2(C(=O)/C=C/c3ccc(O)c(OC)c3)CCC=C[C@@H]2c2ccc(OC)c(OC)c2)ccc1O | Active | Toxic | Dose-dependent effect | – | – | – | – |
| – | – | COc1ccc([C@H]2[C@H](CCO)CC=C[C@@H]2c2ccc(OC)c(OC)c2)cc1OC | – | – | – | inactive | – | – | – |
| – | – | COc1cc(/C=C/C(=O)C2(C(=O)/C=C/c3ccc(O)c(OC)c3)CCC=C[C@@H]2c2cc(OC)c(OC)cc2OC)ccc1O | Active | – | Dose-dependent effect | – | Toxic | Active | – |
| 59.6 | Dose-dependent effect | COc1ccc(/C=C/[C@H]2CCC=C[C@@H]2c2ccc(OC)c(OC)c2)cc1OC | – | – | – | – | – | – | Active |
